Reference: patent US20200339625A1, “NOVEL RADIOMETAL-BINDING COMPOUNDS FOR DIAGNOSIS OR TREATMENT OF PROSTATE SPECIFIC MEMBRANE ANTIGEN-EXPRESSING CANCER” (PROVINCIAL HEALTH SERVICES AUTHORITY, priority 2017, published 2020)
Values belong to the molecule of their own block, whether it stands above or below them.

Test system: mice bearing PSMA-expressing LNCAP cancer xenografts
Test: Biodistribution of 68Ga-labeled compounds
Assay type: in vivo
Method: Imaging and biodistribution experiments were performed using NODSCID 1L2RyKO male mice. Mice were anesthetized by inhalation with 2% isoflurane in oxygen, and implanted subcutaneously with 1×10^7 LNCaP cells behind left shoulder. Mice were imaged or used in biodistribution studies when the tumor grew up to reach 5-8 mm in diameter during 5-6 weeks.
For biodistribution studies, the mice were injected with the radiotracer as described above. At predetermined time points (1 or 3 h), the mice was anesthetized with 2% isoflurane inhalation, and euthanized by CO2 inhalation. Blood was withdrawn immediately from the heart, and the organs/tissues of interest were collected. The collected organs/tissues were weighed and counted using an automatic gamma counter. The uptake in each organ/tissue was normalized to the injected dose using a standard curve, and expressed as the percentage of the injected dose per gram of tissue (% ID/g).

- Adrenal glands uptake (1 h post-injection): 4.32 ± 0.25 % ID/g
- Blood uptake (1 h post-injection): 27.0 ± 5.63 % ID/g
- Bone uptake (1 h post-injection): 1.26 ± 0.08 % ID/g
- Brain uptake (1 h post-injection): 0.31 ± 0.04 % ID/g
- Fat uptake (1 h post-injection): 1.83 ± 0.44 % ID/g
- Heart uptake (1 h post-injection): 6.53 ± 1.30 % ID/g
- Intestine uptake (1 h post-injection): 1.86 ± 0.06 % ID/g
- Kidneys uptake (1 h post-injection): 9.11 ± 1.06 % ID/g
- Lacrimal uptake (1 h post-injection): 0.93 ± 0.36 % ID/g
- Liver uptake (1 h post-injection): 3.71 ± 0.38 % ID/g
- Lungs uptake (1 h post-injection): 9.51 ± 0.55 % ID/g
- Muscle uptake (1 h post-injection): 1.10 ± 0.18 % ID/g
- Pancreas uptake (1 h post-injection): 1.86 ± 0.04 % ID/g
- Salivary uptake (1 h post-injection): 3.31 ± 0.79 % ID/g
- Seminal uptake (1 h post-injection): 1.27 ± 0.18 % ID/g
- Spleen uptake (1 h post-injection): 2.72 ± 0.69 % ID/g
- Stomach uptake (1 h post-injection): 0.64 ± 0.05 % ID/g
- Tail uptake (1 h post-injection): 7.58 ± 4.49 % ID/g
- Testes uptake (1 h post-injection): 2.98 ± 0.30 % ID/g
- Thyroid uptake (1 h post-injection): 4.39 ± 0.01 % ID/g
- Tumor uptake (1 h post-injection): 7.34 ± 0.10 % ID/g
- Tumor:Blood ratio (1 h post-injection): 0.28 ± 0.05
- Tumor:Muscle ratio (1 h post-injection): 6.74 ± 1.00
- Tumor:kidney ratio (1 h post-injection): 0.81 ± 0.11
- Urine uptake (1 h post-injection): 1.48 ± 0.71 % ID/g
- Adrenal glands uptake (3 h post-injection): 6.37 ± 1.54 % ID/g
- Blood uptake (3 h post-injection): 23.9 ± 1.03 % ID/g
- Bone uptake (3 h post-injection): 1.66 ± 0.39 % ID/g
- Brain uptake (3 h post-injection): 0.34 ± 0.02 % ID/g
- Fat uptake (3 h post-injection): 3.53 ± 1.48 % ID/g
- Heart uptake (3 h post-injection): 5.56 ± 0.43 % ID/g
- Intestine uptake (3 h post-injection): 1.66 ± 0.14 % ID/g
- Kidneys uptake (3 h post-injection): 12.3 ± 0.86 % ID/g
- Lacrimal uptake (3 h post-injection): 3.57 ± 1.56 % ID/g
- Liver uptake (3 h post-injection): 3.86 ± 0.63 % ID/g
- Lungs uptake (3 h post-injection): 11.6 ± 0.82 % ID/g
- Muscle uptake (3 h post-injection): 1.55 ± 0.15 % ID/g
- Pancreas uptake (3 h post-injection): 1.86 ± 0.20 % ID/g
- Salivary uptake (3 h post-injection): 4.66 ± 0.58 % ID/g
- Seminal uptake (3 h post-injection): 1.63 ± 0.13 % ID/g
- Spleen uptake (3 h post-injection): 2.62 ± 0.93 % ID/g
- Stomach uptake (3 h post-injection): 0.70 ± 0.10 % ID/g
- Tail uptake (3 h post-injection): 4.03 ± 0.43 % ID/g
- Testes uptake (3 h post-injection): 3.07 ± 0.20 % ID/g
- Thyroid uptake (3 h post-injection): 4.19 ± 0.48 % ID/g
- Tumor uptake (3 h post-injection): 15.0 ± 2.19 % ID/g
- Tumor:Blood ratio (3 h post-injection): 0.63 ± 0.11
- Tumor:Muscle ratio (3 h post-injection): 9.69 ± 1.51
- Tumor:kidney ratio (3 h post-injection): 1.21 ± 0.10
- Urine uptake (3 h post-injection): 3.68 ± 1.74 % ID/g
SMILES: O=C([O-])CN1CCN(CC(=O)[O-])CCN(CC(=O)NCCCC[C@H](NC(=O)CNC(=O)CCCc2ccc(I)cc2)C(=O)NC[C@H]2CC[C@H](C(=O)N[C@@H](Cc3ccc4ccccc4c3)C(=O)NCCCC[C@H](NC(=O)N[C@@H](CCC(=O)O)C(=O)O)C(=O)O)CC2)CCN(CC(=O)[O-])CC1.[68Ga+3] [^68Ga-HTK03024]

- Adrenal glands uptake (1 h post-injection): 2.95 ± 0.92 % ID/g
- Blood uptake (1 h post-injection): 1.74 ± 0.11 % ID/g
- Bone uptake (1 h post-injection): 0.16 ± 0.02 % ID/g
- Brain uptake (1 h post-injection): 0.04 ± 0.01 % ID/g
- Fat uptake (1 h post-injection): 0.77 ± 0.14 % ID/g
- Heart uptake (1 h post-injection): 0.52 ± 0.07 % ID/g
- Intestine uptake (1 h post-injection): 0.32 ± 0.06 % ID/g
- Kidneys uptake (1 h post-injection): 102 ± 8.91 % ID/g
- Lacrimal uptake (1 h post-injection): 0.06 ± 0.05 % ID/g
- Liver uptake (1 h post-injection): 0.44 ± 0.06 % ID/g
- Lungs uptake (1 h post-injection): 1.75 ± 0.09 % ID/g
- Muscle uptake (1 h post-injection): 0.31 ± 0.05 % ID/g
- Pancreas uptake (1 h post-injection): 0.45 ± 0.02 % ID/g
- Salivary uptake (1 h post-injection): 1.76 ± 0.16 % ID/g
- Seminal uptake (1 h post-injection): 2.40 ± 2.83 % ID/g
- Spleen uptake (1 h post-injection): 2.42 ± 0.79 % ID/g
- Stomach uptake (1 h post-injection): 0.14 ± 0.05 % ID/g
- Tail uptake (1 h post-injection): 0.91 ± 0.12 % ID/g
- Testes uptake (1 h post-injection): 0.48 ± 0.06 % ID/g
- Thyroid uptake (1 h post-injection): 0.74 ± 0.04 % ID/g
- Tumor uptake (1 h post-injection): 20.7 ± 3.79 % ID/g
- Tumor:Blood ratio (1 h post-injection): 11.9 ± 1.92
- Tumor:Muscle ratio (1 h post-injection): 66.6 ± 9.63
- Tumor:kidney ratio (1 h post-injection): 0.20 ± 0.02
- Urine uptake (1 h post-injection): 196 ± 50.9 % ID/g
- Adrenal glands uptake (3 h post-injection): 0.90 ± 0.36 % ID/g
- Blood uptake (3 h post-injection): 0.52 ± 0.08 % ID/g
- Bone uptake (3 h post-injection): 0.03 ± 0.03 % ID/g
- Brain uptake (3 h post-injection): 0.01 ± 0.00 % ID/g
- Fat uptake (3 h post-injection): 0.40 ± 0.11 % ID/g
- Heart uptake (3 h post-injection): 0.16 ± 0.03 % ID/g
- Intestine uptake (3 h post-injection): 0.23 ± 0.10 % ID/g
- Kidneys uptake (3 h post-injection): 56.1 ± 20.3 % ID/g
- Lacrimal uptake (3 h post-injection): 0.00 ± 0.00 % ID/g
- Liver uptake (3 h post-injection): 0.31 ± 0.19 % ID/g
- Lungs uptake (3 h post-injection): 0.53 ± 0.12 % ID/g
- Muscle uptake (3 h post-injection): 0.08 ± 0.02 % ID/g
- Pancreas uptake (3 h post-injection): 0.14 ± 0.03 % ID/g
- Salivary uptake (3 h post-injection): 0.47 ± 0.07 % ID/g
- Seminal uptake (3 h post-injection): 1.44 ± 3.04 % ID/g
- Spleen uptake (3 h post-injection): 0.80 ± 0.31 % ID/g
- Stomach uptake (3 h post-injection): 0.07 ± 0.04 % ID/g
- Tail uptake (3 h post-injection): 0.27 ± 0.05 % ID/g
- Testes uptake (3 h post-injection): 0.17 ± 0.05 % ID/g
- Thyroid uptake (3 h post-injection): 0.24 ± 0.05 % ID/g
- Tumor uptake (3 h post-injection): 20.4 ± 5.92 % ID/g
- Tumor:Blood ratio (3 h post-injection): 39.2 ± 8.42
- Tumor:Muscle ratio (3 h post-injection): 254 ± 88.9
- Tumor:kidney ratio (3 h post-injection): 0.40 ± 0.16
- Urine uptake (3 h post-injection): 339 ± 355 % ID/g
SMILES: Nc1ccc(CCCC(=O)NCC(=O)N[C@@H](CCCCNC(=O)CN2CCN(CC(=O)[O-])CCN(CC(=O)[O-])CCN(CC(=O)[O-])CC2)C(=O)NC[C@H]2CC[C@H](C(=O)N[C@@H](Cc3ccc4ccccc4c3)C(=O)NCCCC[C@H](NC(=O)N[C@@H](CCC(=O)O)C(=O)O)C(=O)O)CC2)cc1.[68Ga+3] [^68Ga-HTK03087]
